Read-outs that look alike come from different tables or passages of the source.
Key:
pTau = pTau assay (no method described); assay type: cell-based
GSK3α = GSK3α (Homo sapiens, UniProt P49840); test: GSK3α kinase assay (Caliper LabChip, fluoresceinated peptide substrate); assay type: biochemical
Description: (§1) The kinase assay was performed in V-bottom 384-well plates. […] The reaction was incubated at room temperature for 20 hours and terminated by adding 45 μl of 35 mM EDTA to each sample. The reaction mixture was analyzed on the Caliper LabChip3000 (Caliper, Hopkinton, Mass.) by electrophoretic separation of the unphosphorylated substrate and phosphorylated product. […] Compounds were dissolved at 10 mM in dimethylsulfoxide (DMSO) and evaluated at eleven concentrations. IC50 values were derived by non-linear regression analysis.

GSK3β = GSK3β (Homo sapiens, UniProt P49841); test: GSK3β kinase assay (Caliper LabChip, fluoresceinated peptide substrate); assay type: biochemical
Description: as §1

[1] = first value of the cell, 250 pM enzyme, 20 uM ATP, 20 hours at room temperature, read-out: GSK3β/α (nM): GSK3β IC50

GSK3β, sequence (P49841 whole entry, species assumed): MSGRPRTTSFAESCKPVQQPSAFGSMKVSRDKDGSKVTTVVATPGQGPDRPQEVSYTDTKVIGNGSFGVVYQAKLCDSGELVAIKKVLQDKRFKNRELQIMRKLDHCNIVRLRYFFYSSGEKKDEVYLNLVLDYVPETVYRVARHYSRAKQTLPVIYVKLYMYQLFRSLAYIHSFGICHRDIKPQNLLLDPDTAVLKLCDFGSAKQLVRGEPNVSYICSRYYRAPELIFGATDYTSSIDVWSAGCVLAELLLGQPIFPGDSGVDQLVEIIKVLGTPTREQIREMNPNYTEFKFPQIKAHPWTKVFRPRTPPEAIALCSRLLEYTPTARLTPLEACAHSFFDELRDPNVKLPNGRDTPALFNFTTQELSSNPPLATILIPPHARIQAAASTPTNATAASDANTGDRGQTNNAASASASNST
GSK3α, sequence (P49840 whole entry, species assumed): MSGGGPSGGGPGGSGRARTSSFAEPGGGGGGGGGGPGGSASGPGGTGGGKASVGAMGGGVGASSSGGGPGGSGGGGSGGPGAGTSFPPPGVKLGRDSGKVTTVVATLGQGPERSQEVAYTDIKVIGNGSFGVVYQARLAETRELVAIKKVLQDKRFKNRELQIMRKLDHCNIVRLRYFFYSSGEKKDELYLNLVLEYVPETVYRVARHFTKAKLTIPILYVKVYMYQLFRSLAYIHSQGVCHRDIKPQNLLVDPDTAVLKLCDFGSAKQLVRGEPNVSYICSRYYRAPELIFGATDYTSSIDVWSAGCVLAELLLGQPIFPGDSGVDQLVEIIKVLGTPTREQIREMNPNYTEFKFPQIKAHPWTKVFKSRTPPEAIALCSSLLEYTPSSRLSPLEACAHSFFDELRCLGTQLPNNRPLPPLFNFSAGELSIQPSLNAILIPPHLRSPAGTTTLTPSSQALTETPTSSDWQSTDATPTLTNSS

O=C(Nc1cncc(-c2ccccc2F)c1)c1ccnc(Nc2ccc(F)cn2)c1 [Example 131, N-(5-(2-Fluorophenyl)pyridin-3-yl)-2-((5-fluoropyridin-2-yl)amino)isonicotinamide]
IC50 (pTau): 640 nM
IC50 (GSK3α): 3 nM
IC50 (GSK3β): 6.1 nM

O=C(Nc1cncc(-c2cc(F)ccc2F)c1)c1ccnc(Nc2ccc(C(F)(F)F)cn2)c1 [Example 129, N-(5-(2,5-Difluorophenyl)pyridin-3-yl)-2-((5-(trifluoromethyl)pyridin-2-yl)amino)isonicotinamide]
IC50 (pTau): 2100 nM
IC50 (GSK3α): 9.8 nM
IC50 (GSK3β; [1]): 18 nM

CC1(COc2ccncc2NC(=O)c2ccnc(Nc3ccc(C(F)(F)F)cn3)c2)CC1 [Example 44, N-(4-((1-Methylcyclopropyl)methoxy)pyridin-3-yl)-2-((5-(trifluoromethyl)pyridin-2-yl)amino)isonicotinamide]
IC50 (pTau): 52 nM
IC50 (GSK3α): 0.33 nM
IC50 (GSK3β; [1]): 1.4 nM

CC[C@@]1(c2cc(Cl)ncc2NC(=O)c2ccnc(Nc3ccc(C(F)(F)F)cn3)c2)OC[C@@H](C)O1 [Example 90, N-(6-Chloro-4-((2R,4R)-2-ethyl-4-methyl-1,3-dioxolan-2-yl)pyridin-3-yl)-2-((5-(trifluoromethyl)pyridin-2-yl)amino)isonicotinamide]
IC50 (pTau): 150 nM
IC50 (GSK3α): 0.94 nM
IC50 (GSK3β; [1]): 2 nM

O=C(Nc1cnc(F)cc1OCC(F)F)c1ccnc(Nc2ccc(F)cn2)c1 [Example 114, N-(4-(2,2-Difluoroethoxy)-6-fluoropyridin-3-yl)-2-((5-fluoropyridin-2-yl)amino)isonicotinamide]
IC50 (pTau): 220 nM
IC50 (GSK3α): 1.5 nM
IC50 (GSK3β; [1]): 4.4 nM

O=C(Nc1cncc(-c2ccccc2F)c1)c1ccnc(Nc2cccc(C(F)(F)F)n2)c1 [Example 134, N-(5-(2-Fluorophenyl)pyridin-3-yl)-2-((6-(trifluoromethyl)pyridin-2-yl)amino)isonicotinamide]
IC50 (pTau): 470 nM
IC50 (GSK3α): 1.5 nM
IC50 (GSK3β; [1]): 3.9 nM

O=C(Nc1cnccc1-c1ccccc1)c1ccnc(Nc2ccc3ccccc3n2)c1 [Example 116, N-(4-Phenylpyridin-3-yl)-2-(quinolin-2-ylamino)isonicotinamide]
IC50 (pTau): 610 nM
IC50 (GSK3α): 3.9 nM
IC50 (GSK3β; [1]): 7.8 nM

O=C(Nc1cncnc1-c1ccccc1)c1ccnc(Nc2ccc(C(F)(F)F)cn2)c1 [Example 193, N-(4-Phenylpyrimidin-5-yl)-2-((5-(trifluoromethyl)pyridin-2-yl)amino)isonicotinamide]
IC50 (pTau): 165 nM
IC50 (GSK3α): 1.9 nM
IC50 (GSK3β; [1]): 3.6 nM

O=C(Nc1cnccc1-c1ccccc1)c1ccnc(Nc2ccccn2)c1 [Example 1, N-(4-Phenylpyridin-3-yl)-2-(pyridin-2-ylamino)isonicotinamide]
IC50 (pTau): 213 nM
IC50 (GSK3α): 2.6 nM
IC50 (GSK3β; [1]): 3.4 nM

CCOc1ccncc1NC(=O)c1ccnc(Nc2ccc(C(F)(F)F)cn2)c1 [Example 15, N-(4-Ethoxypyridin-3-yl)-2-((5-trifluoromethylpyridin-2-yl)amino)isonicotinamide]
IC50 (pTau): 42 nM
IC50 (GSK3α): 0.56 nM
IC50 (GSK3β; [1]): 1.3 nM

COc1cc(C2(C)OCCO2)c(NC(=O)c2ccnc(Nc3ccc(C(F)(F)F)cn3)c2)cn1 [Example 91, N-(6-Methoxy-4-(2-methyl-1,3-dioxolan-2-yl)pyridin-3-yl)-2-((5-(trifluoromethyl)pyridin-2-yl)amino)isonicotinamide]
IC50 (pTau): 1200 nM
IC50 (GSK3α): 20 nM
IC50 (GSK3β; [1]): 3.9 nM

CC(C)S(=O)(=O)c1ccncc1NC(=O)c1ccnc(Nc2ccc(C(F)(F)F)cn2)c1 [Example 186, N-(4-(Isopropylsulfonyl)pyridin-3-yl)-2-((5-(trifluoromethyl)pyridin-2-yl)amino)isonicotinamide]
IC50 (pTau): 2 nM
IC50 (GSK3α; second value of the cell, 250 pM enzyme, 20 uM ATP, 20 hours at room temperature, read-out: GSK3β/α (nM): GSK3α IC50): 0.04 nM
IC50 (GSK3β): 1.2 nM

O=C(Nc1cncc(-c2ccccc2F)c1)c1ccnc(Nc2ccc(C(F)(F)F)cn2)c1 [Example 127, N-(5-(2-Fluorophenyl)pyridin-3-yl)-2-((5-(trifluoromethyl)pyridin-2-yl)amino)isonicotinamide]
IC50 (pTau): 1750 nM
IC50 (GSK3α): 6 nM
IC50 (GSK3β; [1]): 11 nM

N#Cc1ccc(Nc2cc(C(=O)Nc3cncc(-c4ccccc4F)c3)ccn2)nc1 [Example 135, 2-((5-Cyanopyridin-2-yl)amino)-N-(5-(2-fluorophenyl)pyridin-3-yl)isonicotinamide]
IC50 (pTau): 670 nM
IC50 (GSK3α): 1.7 nM
IC50 (GSK3β; [1]): 3 nM

Cc1cccc(Nc2cc(C(=O)Nc3cncc(-c4ccccc4F)c3)ccn2)n1 [Example 137, N-(5-(2-Fluorophenyl)pyridin-3-yl)-2-((6-methylpyridin-2-yl)amino)isonicotinamide]
IC50 (pTau): 2700 nM
IC50 (GSK3α): 5.6 nM
IC50 (GSK3β; [1]): 7.1 nM

O=C(Nc1cnsc1-c1ccccc1)c1ccnc(Nc2ccc(C(F)(F)F)cn2)c1 [Example 204, N-(5-Phenylisothiazol-4-yl)-2-((5-(trifluoromethyl)pyridin-2-yl)amino)isonicotinamide]
IC50 (pTau): 300 nM
IC50 (GSK3α): 1.7 nM
IC50 (GSK3β; [1]): 3 nM

O=C(Nc1cncc(OCC2CC2)c1)c1ccnc(Nc2cccc(C(F)(F)F)n2)c1 [Example 124, N-(5-(Cyclopropylmethoxy)pyridin-3-yl)-2-((6-(trifluoromethyl)pyridin-2-yl)amino)isonicotinamide]
IC50 (pTau): 3600 nM
IC50 (GSK3α): 3.5 nM
IC50 (GSK3β; [1]): 9.4 nM

CCC1(c2cc(Cl)ncc2NC(=O)c2ccnc(Nc3ccc(C(F)(F)F)cn3)c2)OC(C)C(C)O1 (stereo not drawn) [Example 81, N-(6-Chloro-4-(2-ethyl-4,5-dimethyl-1,3-dioxolan-2-yl)pyridin-3-yl)-2-((5-(trifluoromethyl)pyridin-2-yl)amino)isonicotinamide]
IC50 (pTau): 1900 nM
IC50 (GSK3α): 4 nM
IC50 (GSK3β; [1]): 6.7 nM

CCOc1ccncc1NC(=O)c1ccnc(Nc2ccc(C)cn2)c1 [Example 14, N-(4-Ethoxypyridin-3-yl)-2-((5-methylpyridin-2-yl)amino)isonicotinamide]
IC50 (pTau): 125 nM
IC50 (GSK3α): 1.5 nM
IC50 (GSK3β; [1]): 0.47 nM

Cc1ccc(Nc2cc(C(=O)Nc3cnccc3-c3ccccc3)ccn2)nc1 [Example 5, 2-((5-Methylpyridin-2-yl)amino)-N-(4-phenylpyridin-3-yl)isonicotinamide]
IC50 (pTau): 183 nM
IC50 (GSK3α): 4.8 nM
IC50 (GSK3β; [1]): 0.77 nM

O=C(Nc1cnc(F)cc1C1(C2CC2)OCCO1)c1ccnc(Nc2ccc(C(F)(F)F)cn2)c1 [Example 94, N-(4-(2-Cyclopropyl-1,3-dioxolan-2-yl)-6-fluoropyridin-3-yl)-2-((5-(trifluoromethyl)pyridin-2-yl)amino)isonicotinamide]
IC50 (pTau): 1.2 nM
IC50 (GSK3α): 0.03 nM
IC50 (GSK3β; [1]): 0.06 nM

O=C(Nc1cnncc1-c1ccccc1)c1ccnc(Nc2ccc(C(F)(F)F)cn2)c1 [Example 198, N-(5-Phenylpyridazin-4-yl)-2-((5-(trifluoromethyl)pyridin-2-yl)amino)isonicotinamide]
IC50 (pTau): 180 nM
IC50 (GSK3α): 2.9 nM
IC50 (GSK3β; [1]): 6.7 nM

Cc1cc(C(C)(O)C2CC2)c(NC(=O)c2ccnc(Nc3ccc(C(F)(F)F)cn3)c2)cn1 (stereo not drawn) [Example 107, N-(4-(1-Cyclopropyl-1-hydroxyethyl)-6-methylpyridin-3-yl)-2-((5-(trifluoromethyl)pyridin-2-yl)amino)isonicotinamide]
IC50 (pTau): 94 nM
IC50 (GSK3α): 0.75 nM
IC50 (GSK3β; [1]): 0.92 nM

O=C(Nc1cnc(Cl)cc1C1(C2CC2)OCCO1)c1ccnc(Nc2ccc(C(F)(F)F)cn2)c1 [Example 87, N-(6-Chloro-4-(2-cyclopropyl-1,3-dioxolan-2-yl)pyridin-3-yl)-2-((5-(trifluoromethyl)pyridin-2-yl)amino)isonicotinamide]
IC50 (pTau): 6.6 nM
IC50 (GSK3α): 0.17 nM
IC50 (GSK3β; [1]): 0.04 nM

CCOc1ccncc1NC(=O)c1ccnc(Nc2cc(C)ccn2)c1 [Example 13, N-(4-Ethoxypyridin-3-yl)-2-((4-methylpyridin-2-yl)amino)isonicotinamide]
IC50 (pTau): 154 nM
IC50 (GSK3α): 2.3 nM
IC50 (GSK3β; [1]): 1.4 nM

CC[C@@]1(c2cc(Cl)ncc2NC(=O)c2ccnc(Nc3ccc(C(F)(F)F)cn3)c2)OC[C@H](C(F)(F)F)O1 [Example 86, N-(6-Chloro-4-((2R,4R)-2-ethyl-4-(trifluoromethyl)-1,3-dioxolan-2-yl)pyridin-3-yl)-2-((5-(trifluoromethyl)pyridin-2-yl)amino)isonicotinamide]
IC50 (pTau): 510 nM
IC50 (GSK3α): 2.4 nM
IC50 (GSK3β; [1]): 12 nM

CC(C)Oc1ccncc1NC(=O)c1ccnc(Nc2ccc(C(F)(F)F)cn2)c1 [Example 19, N-(4-(Isopropoxy)pyridin-3-yl)-2-((5-(trifluoromethyl)pyridin-2-yl)amino)isonicotinamide]
IC50 (pTau): 16 nM
IC50 (GSK3α): 0.55 nM
IC50 (GSK3β; [1]): 1.6 nM

O=C(Nc1cncc(-c2ccccc2Cl)c1)c1ccnc(Nc2cccc(C(F)(F)F)n2)c1 [Example 145, N-(5-(2-Chlorophenyl)pyridin-3-yl)-2-((6-(trifluoromethyl)pyridin-2-yl)amino)isonicotinamide]
IC50 (pTau): 730 nM
IC50 (GSK3α): 4.4 nM
IC50 (GSK3β; [1]): 6.4 nM

N#Cc1ccc(-c2ccncc2NC(=O)c2ccnc(Nc3ccc(C(F)(F)F)cn3)c2)c(F)c1 [Example 52, N-(4-(2-Fluoro-4-cyano-phenyl)pyridin-3-yl)-2-((5-(trifluoromethyl)pyridin-2-yl)amino)isonicotinamide]
IC50 (pTau): 35 nM
IC50 (GSK3α): 1.5 nM
IC50 (GSK3β; [1]): 3.6 nM

CC(C)(C)COc1ccncc1NC(=O)c1ccnc(Nc2ccc(C#N)cn2)c1 [Example 25, 2-((5-Cyanopyridin-2-yl)amino)-N-(4-(neopentyloxy)pyridin-3-yl)isonicotinamide]
IC50 (pTau): 30 nM
IC50 (GSK3α): 2 nM
IC50 (GSK3β; [1]): 4.3 nM

— patent US9718804B2, “GSK-3 inhibitors” (BRISTOL-MYERS SQUIBB COMPANY, priority 2013, dated 2017)
